SMILES strings stand for the structures. Like-named read-outs stand apart in the source and are kept apart here.

Holding throughout (assay type): binding
For one experiment, the target named is T1, GABARAPL1 (Homo sapiens, UniProt Q9H0R8).
T1 construct: GST-GABARAPL1 full-length (pAL); GST (followed by 3C protease cleavage site) (N); made in house
The experiment can be described thus: Bio-layer interferometry (BLI) affinity of SCOC LIR peptides for GABARAPL1. On the procedure: (§1) Bio-layer interferometry (BLI) is an optical analytical technique for measuring kinetics of interactions in real-time. The biosensor tip surface immobilized with a ligand is incubated with an analyte in solution, resulting in an increase in optical thickness at the biosensor tip and a wavelength shift, which is a direct measure of the change in thickness. Bio-layer interferometry analyses of ATG8s binding to immobilized biotinylated LIR peptides were performed using an Octet Red 96 (ForteBio). […] Ligands-loaded SA biosensors were then incubated with different concentrations of ATG8. All binding experiments were performed in solid-black 96-well plates containing 200 μl of solution (25 mM Tris pH 7.5, 150 mM NaCl, 0.5 mM TCEP, 0.1% Tween20, 1 mg/ml BSA) in each well at 25 °C with an agitation speed of 1000 rpm. Each measurement was repeated 2 to 3 times. Dissociation constants for LIR-ATG8 interactions were determined from plotting the increase in BLI response as a function of the protein concentration and fitting using non-linear regression of ForteBio 7.1 data analysis and GraphPad Prism 7 softwares.
(§2) The following peptides were synthesized using FMOC solid phase peptide chemistry by the Francis CRICK Institute peptide chemistry science technology platform: […]
A general note: In BLI a coated tip is dipped into the sample, and binding shifts an interference pattern.

Another experiment addresses T2, LC3C (Homo sapiens, UniProt Q9BXW4).
T2 construct: GST (followed by 3C protease cleavage site) (N); made in house
The experiment can be described thus: Bio-layer interferometry (BLI) affinity of SCOC LIR peptides for LC3C. On the procedure: as §1, §2

Another experiment addresses T3, LC3A (Homo sapiens, UniProt Q9H492).
T3 construct: GST (followed by 3C protease cleavage site) (N); made in house
The experiment can be described thus: Bio-layer interferometry (BLI) affinity of SCOC LIR peptides for LC3A. The method, then:
as §1, §2

A further experiment concerns the target T4, LC3B (Homo sapiens, UniProt Q9GZQ8).
T4 construct: GST (followed by 3C protease cleavage site) (N); made in house
The experiment is described as follows: Bio-layer interferometry (BLI) affinity of SCOC LIR peptides for LC3B. The method, then:
as §1, §2

The next experiment has as its target T5, GABARAP (Homo sapiens, UniProt O95166).
T5 construct: fused with a Gly-Ser linker to full-length GABARAP (GST-GABARAP (pAL)); GST (followed by 3C protease cleavage site) (N); made in house
The experiment can be described thus: Bio-layer interferometry (BLI) affinity of SCOC LIR peptides for GABARAP. On the procedure:
as §1, §2

For a further experiment, the target named is T6, GABARAPL2 (Homo sapiens, UniProt P60520).
T6 construct: GST (followed by 3C protease cleavage site) (N); made in house
The experiment is described as follows: Bio-layer interferometry (BLI) affinity of SCOC LIR peptides for GABARAPL2. The method, then:
as §1, §2

[1] abbreviates: BLI, wild-type and phosphorylated SCOC LIR peptides, Tris pH 7.5, 25 °C, average ± standard error of fit, n = 2–3, Figure 4B, read-out: Kd GAB-L1.
The mark [2] stands for this setting: BLI, wild-type and phosphorylated SCOC LIR peptides, Tris pH 7.5, 25 °C, average ± standard error of fit, n = 2–3, Figure 4B, read-out: Kd LC3C.
The mark [3] stands for this setting: BLI, wild-type and phosphorylated SCOC LIR peptides, Tris pH 7.5, 25 °C, average ± standard error of fit, n = 2–3, Figure 4B, read-out: Kd LC3A.
Where [4] appears, read: BLI, wild-type and phosphorylated SCOC LIR peptides, Tris pH 7.5, 25 °C, average ± standard error of fit, n = 2–3, Figure 4B, read-out: Kd LC3B.
Where [5] appears, read: BLI, wild-type and phosphorylated SCOC LIR peptides, Tris pH 7.5, 25 °C, average ± standard error of fit, n = 2–3, Figure 4B, read-out: Kd GAB.
Setting [6] is: BLI, wild-type and phosphorylated SCOC LIR peptides, Tris pH 7.5, 25 °C, average ± standard error of fit, n = 2–3, Figure 4B, read-out: Kd GAB-L2.

T2 sequence (Q9BXW4 whole entry): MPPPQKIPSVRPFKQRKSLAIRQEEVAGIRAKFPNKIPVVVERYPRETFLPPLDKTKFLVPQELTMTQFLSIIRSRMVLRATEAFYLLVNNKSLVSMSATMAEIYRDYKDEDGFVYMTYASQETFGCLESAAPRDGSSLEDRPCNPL
T1 sequence (Q9H0R8 whole entry): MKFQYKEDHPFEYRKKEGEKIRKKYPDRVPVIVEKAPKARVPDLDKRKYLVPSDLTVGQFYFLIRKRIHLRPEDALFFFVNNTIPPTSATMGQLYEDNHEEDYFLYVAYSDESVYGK
T6 sequence (P60520 whole entry): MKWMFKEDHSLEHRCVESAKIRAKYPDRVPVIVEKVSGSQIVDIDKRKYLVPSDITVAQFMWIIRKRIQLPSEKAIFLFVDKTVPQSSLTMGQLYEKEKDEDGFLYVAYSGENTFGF
T5 sequence (O95166 whole entry, the tested form may be a part): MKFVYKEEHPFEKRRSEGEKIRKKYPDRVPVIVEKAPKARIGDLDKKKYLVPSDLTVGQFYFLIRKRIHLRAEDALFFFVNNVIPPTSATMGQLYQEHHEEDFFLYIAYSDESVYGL

On to `CC[C@H](C)[C@H](NC(=O)[C@H](CC(=O)O)NC(=O)[C@H](CC(=O)O)NC(=O)[C@H](C)NC(=O)[C@H](CC(C)C)NC(=O)[C@H](COP(=O)(O)O)NC(=O)[C@@H](NC(=O)[C@H](CC(N)=O)NC(=O)[C@@H](NC(=O)[C@H](Cc1ccccc1)NC(=O)[C@@H](NC(=O)[C@H](CO)NC(=O)[C@H](CC(=O)O)NC(=O)[C@H](CCC(=O)O)NC(=O)[C@H](CCC(=O)O)NC(=O)[C@H](CCC(=O)O)NC(=O)[C@H](CCC(=O)O)NC(=O)[C@@H](N)CCCCN)[C@@H](C)O)[C@@H](C)O)[C@@H](C)CC)C(=O)N[C@@H](CC(=O)O)C(=O)N[C@@H](Cc1c[nH]cn1)C(N)=O` [pS18], for which the Kd on GABARAPL1 (setting [1]) is 2.1 ± 0.1 µM; at LC3C (setting [2]), 1.9 ± 0.2 µM; on LC3A (setting [3]), 4.9 ± 0.4 µM; on LC3B (setting [4]), 48.9 ± 8.6 µM; on GABARAP (setting [5]) it was 3.9 ± 0.3 µM; at GABARAPL2 (setting [6]), 26 ± 2.4 µM.

Regarding `CC[C@H](C)[C@H](NC(=O)[C@H](CC(N)=O)NC(=O)[C@@H](NC(=O)[C@H](Cc1ccccc1)NC(=O)[C@@H](NC(=O)[C@H](CO)NC(=O)[C@H](CC(=O)O)NC(=O)[C@H](CCC(=O)O)NC(=O)[C@H](CCC(=O)O)NC(=O)[C@H](CCC(=O)O)NC(=O)[C@H](CCC(=O)O)NC(=O)[C@@H](N)CCCCN)[C@@H](C)O)[C@@H](C)O)C(=O)N[C@@H](CO)C(=O)N[C@@H](CC(C)C)C(=O)N[C@@H](C)C(N)=O` [SCOC aa 6-20], the Kd at GABARAPL1 (BLI, wild-type, truncated and phosphorylated SCOC LIR peptides, Tris pH 7.5, 25 °C, average ± standard error of fit, n = 2, Figure 6A, read-out: Kd GAB-L1) was 6.8 ± 0.6 µM; on LC3C (BLI, wild-type, truncated and phosphorylated SCOC LIR peptides, Tris pH 7.5, 25 °C, average ± standard error of fit, n = 2, Figure 6A, read-out: Kd LC3C), 21.3 ± 2.4 µM; at LC3A (BLI, wild-type, truncated and phosphorylated SCOC LIR peptides, Tris pH 7.5, 25 °C, average ± standard error of fit, n = 2, Figure 6A, read-out: Kd LC3A) it was 209 ± 25 µM; on GABARAP (BLI, wild-type, truncated and phosphorylated SCOC LIR peptides, Tris pH 7.5, 25 °C, average ± standard error of fit, n = 2, Figure 6A, read-out: Kd GAB), 8.5 ± 0.7 µM.

Turning to `CC[C@H](C)[C@H](NC(=O)[C@H](CC(=O)O)NC(=O)[C@H](CC(=O)O)NC(=O)[C@H](C)NC(=O)[C@H](CC(C)C)NC(=O)[C@H](CO)NC(=O)[C@@H](NC(=O)[C@H](CC(N)=O)NC(=O)[C@@H](NC(=O)[C@H](Cc1ccccc1)NC(=O)[C@@H](NC(=O)[C@H](COP(=O)(O)O)NC(=O)[C@H](CC(=O)O)NC(=O)[C@H](CCC(=O)O)NC(=O)[C@H](CCC(=O)O)NC(=O)[C@H](CCC(=O)O)NC(=O)[C@H](CCC(=O)O)NC(=O)[C@@H](N)CCCCN)[C@@H](C)O)[C@@H](C)OP(=O)(O)O)[C@@H](C)CC)C(=O)N[C@@H](CC(=O)O)C(=O)N[C@@H](Cc1c[nH]cn1)C(N)=O` [pS12, pT15], the Kd at GABARAPL1 worked out at 0.37 ± 0.04 µM; on LC3C, 0.41 ± 0.04 µM; on LC3A it was 0.7 ± 0.08 µM; at LC3B, 4.8 ± 0.6 µM; at GABARAP, 1 ± 0.1 µM; on GABARAPL2, 8.3 ± 0.4 µM.

With `CC[C@H](C)[C@H](NC(=O)[C@H](CC(=O)O)NC(=O)[C@H](CC(=O)O)NC(=O)[C@H](C)NC(=O)[C@H](CC(C)C)NC(=O)[C@H](COP(=O)(O)O)NC(=O)[C@@H](NC(=O)[C@H](CC(N)=O)NC(=O)[C@@H](NC(=O)[C@H](Cc1ccccc1)NC(=O)[C@@H](NC(=O)[C@H](COP(=O)(O)O)NC(=O)[C@H](CC(=O)O)NC(=O)[C@H](CCC(=O)O)NC(=O)[C@H](CCC(=O)O)NC(=O)[C@H](CCC(=O)O)NC(=O)[C@H](CCC(=O)O)NC(=O)[C@@H](N)CCCCN)[C@@H](C)O)[C@@H](C)O)[C@@H](C)CC)C(=O)N[C@@H](CC(=O)O)C(=O)N[C@@H](Cc1c[nH]cn1)C(N)=O` [pS12, pS18], the Kd on GABARAPL1 (setting [1]) is 0.4 ± 0.03 µM; on LC3C (setting [2]), 0.4 ± 0.04 µM; at LC3A (setting [3]), 1.6 ± 0.2 µM; at LC3B (setting [4]), 7.8 ± 0.9 µM; on GABARAP (setting [5]), 1 ± 0.1 µM; on GABARAPL2 (setting [6]), 10.4 ± 0.5 µM.

The Kd is the equilibrium constant for the complex coming apart.
